Source: patent publication US11167046B2, “IR dyes for fluorescence imaging” (LI-COR, INC., priority 2014, dated 2021)
Read-outs that look alike come from different tables or passages of the source.

Assays:
A431 cells = assay: In vitro cell-based assay of non-specific binding, A431 cells; settings: dyes compared to 800CW
Description: (§1) FIGS. 2A, and 2B illustrate in vitro cell-based analyses for A549 cells (A) and A431 cells (B).
(§2) In vitro cell-based assays with two carcinoma cell lines (A431 and A549) were done to assess non-specific binding of the compound of Formula 1 and the compound of Formula 2. The dyes were compared to 800CW.
(§3) The fluorescence in each well was quantified with the instrument software.

A549 cells = assay: In vitro cell-based assay of non-specific binding, A549 cells; settings: dyes compared to 800CW
Description: as §1, §2, §3

[1] = Clearance profiles by whole-animal fluorescence imaging (dorsal and ventral) in nude mice; assay type: in vivo
Procedure: (§4) Animals injected with the probes were imaged over time using the 800 fluorescence channel of the Pearl Impulse Imaging System (LI-COR Biosciences). Clearance profiles for 800CW, the compound of Formula 1, and the compound of Formula 2 were carried out in nude mice (dose of 1 nmole for all compounds). Serial images and excised organs were evaluated over a 24 hr period. A Pearl Impulse small animal imaging system was used for all animal and organ image acquisitions.
Non-invasive imaging will not capture signals for the full depth of the animal but the intensity values are useful to show a relative trend.
Another way of examining fluorescence signals is by measuring the % of the compound remaining at a particular time point. The 30 min time point is the baseline to which other time points are normalized.
The percent signal remaining at each time is shown with the 30 min time point post-injection, which is used as the baseline.

[2] = Excised organs imaged at 24 hrs; assay type: in vivo, nude mice; settings: for detected in the brain: excised organs at 24 hrs
Procedure: as §4
Organs were excised at 24 hrs and imaged.

[3] = Excised organ evaluation at 24 hrs and 72 hrs; assay type: in vivo, mouse
Description: FIGS. 11A-11H show images of various mouse organs after administration. Fluorescence images of various mouse organs at 24 and 72 hrs post-administration for the comparative control (FIG. 11A), compound of Formula 1 (FIGS. 11C and 11E) and compound of Formula 2 (FIGS. 11B and 11D). Organs examined included: heart (Ht), lungs (Ln), kidney (Kd), liver (Lv), spleen (Spl), intestine (Int), brain (Br), and muscle (Ms). […] FIGS. 11F-11H show intraoperative fluorescence (800 nm, compound of Formula 2) (FIG. 11G), white light (FIG. 11F), and composite images of the liver, gall bladder, and bile duct for compound of Formula 2 (0.1 nmole) (FIG. 11H).
Fluorescent signal intensities of various organs were examined at 24 hrs and 72 hrs for the compound of Formula 1 and the compound of Formula 2 (FIG. 11A-11E). Organs examined included: heart (Ht), lungs (Ln), kidney (Kd), liver (Lv), spleen (Spl), intestine (Int), brain (Br), and muscle (Ms).

[4] = Elimination routes in mice: serial whole animal imaging and organ imaging; assay type: in vivo, nude mice; settings: for plasma protein binding: inferred from liver retention / clearance; for excretion / elimination route: 1 nmole by tail vein injection; for signal in kidneys and liver, organ 1/10th LUT scale: organs harvested after 24 hours, 1 nmole tail vein
Procedure: This example describes an experiment to evaluate the excretion of the dyes described herein from animals injected with such. The dyes tested were stable cyanine dyes (IRdyes): 800CW, 800BK-sulfonate (compound of Formula 1; 800BK or BK) and 800BK-NOS (compound of Formula 2; 800NOS or NOS). In this study 12 nude mice (3 per treatment group) were injected with either (1) no probe (control group); (2) 800CW; (3) 800NOS; or (4) 800BK. The three probes (800CW-1166 g/mole (should have been 1091.1 g/mole), 800NOS-1011.09 g/mole, and 800BK-1113.14 g/mole) were dissolved in PBS. A spot test of the three probes was performed to detect the fluorescent signal when diluted to the injection dose of 1 nmole/100 μl (FIG. 12).
The mice received 1 nmole of dye by tail vein injection. The mice were imaged serially over 24 hours after IV injection: 5 minutes, 1 hour, 2 hours, 4 hours, 6 hours and 24 hours after injection. A representative series of images are presented in FIGS. 13A-13C of one animal per dye. All the data was normalized to the same LUT. A control mouse (no probe) was used as a reference (no signal control). Imaging was performed using the Pearl® Trilogy Imaging System (LI-COR®).
The mice were then sacrificed and their organs and tissue (i.e., liver, kidney, lungs, spleen and muscle) were harvested. The organs were imaged to detect fluorescence. When the same LUT was used for the animal and organ images, fluorescence in the organs was not detectable. As such, the low end of the animal scale was expanded such that the images of the organs could be evaluated (FIG. 14). For example, the “Organs 1/10th scale” was used for the images of FIGS. 15A-15D and the “Organs 1/100th scales was used for the images of FIGS. 16A-16D.

[5] = Solubility in water or aqueous media; assay type: physicochemical; settings: for concentration when re-suspended in water: in some embodiments; for solubility in water: stated as 'can be'
[6] = Excitation and emission of the NIR imaging probe; assay type: physicochemical
Description: The NIR imaging probe used was the compound of Formula 1; excitation 773 nm and emission 790 nm or independently, Formula 2, excitation 772 nm and emission 787 nm.

[7] = mouse, in vivo
[8] = Biliary tract imaging, comparison with ICG and dose response; assay type: in vivo, mouse; settings: for time post-intravenous administration by which gall bladder is visible: continues visible at 2 hrs and 5 hrs
Procedure: A Pearl Impulse small animal imaging system was used for all animal and organ image acquisitions.
A comparison of the dose responses for the compound of Formula 2 are shown in FIG. 10B (1 nmole), FIG. 10C (0.5 nmole), and FIGS. 10D and 10E (0.1 nmole) at time periods of 1 min, 30 min, 2 hrs, 5 hrs, and 24 hrs. All images are presented using the same LUT table except FIG. 10E where the LUT for FIG. 10D has been reduced to brighten the 800 nm signal so they are visible.

[9] = Fluorescent signal analysis of mouse urine; settings: urine extracted with acetonitrile:methanol; Odyssey CLx, 800 nm
[10] = 30 min post-injection (baseline), 1 nmole, whole body, ventral view
[11] = 120 min post-injection, normalized to 30 min, 1 nmole
[12] = 300 min post-injection, normalized to 30 min, 1 nmole
[13] = 1440 min post-injection, normalized to 30 min, 1 nmole

Compound	non-specific binding (A431 cells)	non-specific binding (A549 cells)	clearance pattern (route), ventral images ([1]; 1 nmole)	percent signal remaining [1, 10]	percent signal remaining [1, 11]	percent signal remaining [1, 12]	percent signal remaining [1, 13]	detected in the brain [2]	fluorescent signal in excised organs ([3]; 24 hrs post administration)	fluorescent signal in excised organs ([3]; 72 hrs post administration)	plasma protein binding [4]	retention time in the liver ([4]; nude mice, 1 nmole IV)	excretion / elimination route ([4]; nude mice)	signal in kidneys and liver, organ 1/10th LUT scale [4]	concentration when re-suspended in water [5]	solubility in water [5]	emission [6]	excitation [6]	other results
CC1(C)C(/C=C/C2=C(Oc3ccc(S(=O)(=O)O)cc3)C(=C/C=C3/N(CCCCS(=O)(=O)O)c4ccc(S(=O)(=O)[O-])cc4C3(C)C)/CCC2)=[N+](CCCCS(=O)(=O)O)c2ccc(S(=O)(=O)O)cc21 [Compound of Formula 1, 2-((E)-2-((E)-3-(2-((E)-3,3-dimethyl-5-sulfonato-1-(4-sulfonatobutyl)indolin-2-ylidene)ethylidene)-2-(4-sulfonatophenoxy)cyclohex-1-en-1-yl)vinyl)-3,3-dimethyl-1-(4-sulfonatobutyl)-3H-indol-1-ium-5-sulfonate]	more comparable to 800CW	more comparable to 800CW	clear rapidly via the kidney	100%	81%	19%	1.4%	None	some signal in the liver and kidney	diminished substantially	increased (higher) plasma protein binding of 800BK than 800CW	longer retention time in the liver compared to 800CW and 800NOS	excreted renally	detectable signal	at least 200 mg/mL	highly soluble in water	790 nm	773 nm	bladder signal, ventral images ([1]; 1 nmole): strongest signal; movement through tissues and retention in organs ([1]; in vivo data): moves rapidly through the tissues but is retained for an extended period in organs; clearance (whole body fluorescence) compared to compound of Formula 2 ([1]; ventral view, 1 nmole): slower clearance; retention in liver and kidney, excised organs ([2]; 24 hrs post injection): retained at higher levels in the liver and kidney compared to the compound of Formula 2; signal in the liver ([4]; excised organs, 24 hours): higher signal compared to 800CW; primary elimination route [7]: renal
CC1(C)C(/C=C/C2=C(Oc3ccccc3)C(=C/C=C3/N(CCCCS(=O)(=O)O)c4ccc(S(=O)(=O)[O-])cc4C3(C)C)/CCC2)=[N+](CCCCS(=O)(=O)O)c2ccc(S(=O)(=O)O)cc21 [Compound of Formula 2, 2-((E)-2-((E)-3-(2-((E)-3,3-dimethyl-5-sulfonato-1-(4-sulfonatobutyl)indolin-2-ylidene)ethylidene)-2-phenoxycyclohex-1-en-1-yl)vinyl)-3,3-dimethyl-1-(4-sulfonatobutyl)-3H-indol-1-ium-5-sulfonate]	significant increase in non-specific binding compared to either the compound of Formula 1 and 800CW by two-fold	significant increase in non-specific binding compared to either the compound of Formula 1 and 800CW by two-fold	clears through the liver	100%	70%	14%	1.4%	None	some signal in the liver and kidney	diminished substantially	low plasma protein binding activity	very short retention time in the liver	eliminated from the body via the biliary tract (liver, gall bladder and bile ducts) and intestines	detectable signal	at least 200 mg/mL	highly soluble in water	787 nm	772 nm	percent signal remaining ([1]; 120 min post-injection, normalized to 30 min, 1 nmole, listed as compound of Formula 2): greatest reduction; fluorescence signal, dorsal view ([1]; 2 hrs post injection, 1 nmole): high signal, emanating in the liver region; whole body signal ([1]; 5 hr post injection, 1 nmole): low compared to 800CW and the compound of Formula 1; whole body fluorescence signal ([1]; ventral view, 1 nmole): lower overall than the signal for 800CW and the compound of Formula 1; liver signals, excised organs ([2]; 24 hrs post injection): lower liver signals at 24 hrs when compared to 800CW and the compound of Formula 1; detection signal in images ([8]; 0.1 nmole dose, same scale as 1 nmole and 0.5 nmole series): very low detection signal; gall bladder target region visibility ([8]; 0.1 nmole dose, scale adjusted (FIG. 10E)): visible on a very low background; time post-intravenous administration by which gall bladder is visible ([8]; 0.5 nmole dose): ≤ 30 min; time post-intravenous administration by which gall bladder is visible ([8]; 1 nmole dose): ≤ 30 min; intestinal signal ([4]; 24 hours post injection): barely detectable; clearance from the whole body to the biliary system ([4]; nude mice, 1 nmole IV): rapid; excretion into the intestines ([4]; nude mice, 1 nmole IV): rapid excretion into the intestines; time at which the liver was visible ([4]; nude mice, 1 nmole IV): 15 min; time during which predominant signal was in the intestines ([4]; nude mice, 1 nmole IV): 2 to 6 h; fluorescent signal in urine [7]: slight fluorescence
CC1(C)C(/C=C/C=C/C=C/C=C2/N(CCCCS(=O)(=O)[O-])c3ccc4ccccc4c3C2(C)C)=[N+](CCCCS(=O)(=O)[O-])c2ccc3ccccc3c21.[Na+] [ICG, indocyanine green]																			fluorescent signal in urine [9]: No fluorescent signal
